Values quoted from earlier work in patent US5516503A, “Diagnostic composition comprising a binuclear complex, its method of preparation and its use in magnetic resonance imaging” (Guerbet S.A., priority 1989, dated 1996).

Tests used:
[1] = test system: male mice; conditions: document FR-A-2 596 992
[2] = information of Berlex Lab.

SMILES: CNC[C@H](O)[C@@H](O)[C@H](O)[C@H](O)CO.CNC[C@H](O)[C@@H](O)[C@H](O)[C@H](O)CO.O=C([O-])CN(CCN(CC(=O)[O-])CC(=O)O)CCN(CC(=O)[O-])CC(=O)O.[Gd+3] [Magnevist, salt of di-N-methylglucamine (dimeglumine) of the complex Gd(III)-diethylenetriaminepentaacetic acid (DTPA)]
- LD50 [1]: 4.45 mmol/kg
- osmotic pressure [2]: 1940 mosm/kg
